Broadly, the IC50 is the concentration that inhibits the measured activity by half.

For experiment [1], the target named is T1, IRAK4 (Homo sapiens, UniProt Q9NWZ3).
T1 construct: purchased ThermoFisher
T1 sequence (Q9NWZ3 1-460): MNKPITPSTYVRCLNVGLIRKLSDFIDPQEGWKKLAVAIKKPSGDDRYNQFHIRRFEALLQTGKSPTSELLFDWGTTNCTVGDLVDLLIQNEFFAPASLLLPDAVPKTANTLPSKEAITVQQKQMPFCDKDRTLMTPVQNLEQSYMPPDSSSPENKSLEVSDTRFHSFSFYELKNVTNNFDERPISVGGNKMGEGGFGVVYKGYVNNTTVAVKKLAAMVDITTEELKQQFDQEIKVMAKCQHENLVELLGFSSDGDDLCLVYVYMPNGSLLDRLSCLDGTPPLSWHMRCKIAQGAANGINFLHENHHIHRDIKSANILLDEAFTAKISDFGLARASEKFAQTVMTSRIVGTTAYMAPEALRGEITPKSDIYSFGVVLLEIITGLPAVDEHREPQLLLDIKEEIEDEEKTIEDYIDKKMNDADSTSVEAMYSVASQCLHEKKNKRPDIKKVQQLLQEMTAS
Nature of the experiment: IRAK4 enzymatic assay (Z'-LYTE, ThermoFisher). It counts as biochemical. The conditions noted are these: 60 minutes at room temperature. As for the experimental part: To measure the IC50 values of compounds herein against IRAK4, a Z′-LYTE assay (ThermoFisher) was used. Briefly, 2.5 μL of different concentrations of the compounds in 1% DMSO were added to 2.4 μL kinase buffer (50 mM HEPES pH 7.5, 0.01% BRIJ-35, 10 mM MgCl2, 1 mM EGTA) in each well of a 384-well plate (Corning Cat. #3676). 5 μL of 2×IRAK4/Ser/Thr 07 mixture (prepared in 50 mM HEPES pH 7.5, 0.01% BRIJ-35, 10 mM MnCl2, 2 mM DTT, and 0.02% NaN3) and 2.5 μL of 4×ATP solution (4×ATP, 50 mM HEPES, pH 7.5, 0.01% BRIJ-35, 10 mM MgCl2, 1 mM EGTA) were added to each well. The plate was shaken for 30 seconds, and then incubated at room temperature for 60 minutes. 5 μL of a 1:100000 dilution of Development Reagent A was added to each well. The plate was shaken for 30 seconds and incubated for 60 minutes at room temperature. The plate was subsequently read on a fluorescence plate reader, and the emissions ratio was calculated to determine the ratio of Ser/Thr 07 phosphorylated by the reaction. Emissions Ratio=Coumarin Emission (443 nm)/Flourescein Emission (520 nm).

Experiment [2] addresses T2, IRAK1 (Homo sapiens, UniProt P51617).
T2 construct: purchased ThermoFisher
Nature of the experiment: IRAK1 enzymatic assay (Adapta Universal Kinase Assay, ThermoFisher). It counts as biochemical. Conditions: 60 minutes at room temperature. As for the experimental part: To measure the IC50 values of the compounds herein against IRAK1, the Adapta Universal Kinase Assay (ThermoFisher) was used. Briefly, 100 nL of different concentrations of the compounds in 100% DMSO were added to each well of a 384-well plate (Corning Cat. #4512). 2.4 μL of 30 mM HEPES, 2.5 μL of 4×ATP solution (in water), and 5 μL of 2×IRAK1/Histone H3 (1-20) peptide mixture (prepared in 50 mM HEPES pH 7.5, 0.01% BRIJ-35, 10 mM MgCl2, 1 mM EGTA) were added to each well. The plate was shaken for 30 seconds and centrifuged for 1 minute at 1000×g. The plate was then incubated at room temperature for 60 minutes. 5 μL of Detection Mix was added to each well. The plate was shaken for 30 seconds and centrifuged for 1 minute at 1000×g. The plate was then incubated at room temperature for 60 minutes. The plate was subsequently read on a fluorescence plate reader, and the emissions ratio was calculated to determine the ratio of ATP to ADP. Emissions Ratio=AF647 Emission (665 nm)/Europium Emission (615 nm).

T2 sequence (P51617 whole entry): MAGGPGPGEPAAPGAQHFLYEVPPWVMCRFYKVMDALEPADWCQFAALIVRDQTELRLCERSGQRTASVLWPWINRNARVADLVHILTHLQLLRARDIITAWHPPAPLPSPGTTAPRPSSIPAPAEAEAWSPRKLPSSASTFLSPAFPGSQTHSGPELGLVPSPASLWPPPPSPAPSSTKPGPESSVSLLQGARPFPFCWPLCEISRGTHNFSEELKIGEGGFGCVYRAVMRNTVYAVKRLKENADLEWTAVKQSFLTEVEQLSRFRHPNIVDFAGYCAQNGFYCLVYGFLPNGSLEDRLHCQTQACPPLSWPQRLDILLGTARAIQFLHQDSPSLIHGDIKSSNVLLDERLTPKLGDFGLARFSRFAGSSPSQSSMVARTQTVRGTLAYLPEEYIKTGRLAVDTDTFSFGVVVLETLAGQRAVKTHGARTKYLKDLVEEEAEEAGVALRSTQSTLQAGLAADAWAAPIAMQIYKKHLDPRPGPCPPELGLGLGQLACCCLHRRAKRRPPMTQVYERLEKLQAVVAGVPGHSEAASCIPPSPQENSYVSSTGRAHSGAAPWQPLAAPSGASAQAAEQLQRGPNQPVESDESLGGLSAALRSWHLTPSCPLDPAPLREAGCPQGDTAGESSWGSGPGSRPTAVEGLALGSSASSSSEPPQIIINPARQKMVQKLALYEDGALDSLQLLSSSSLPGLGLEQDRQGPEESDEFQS

As to `CN1CCC(c2cc(NC(=O)c3cccc(-c4ccn[nH]4)n3)n(-c3ccccn3)n2)CC1` [Compound 001, N-(3-(1-Methylpiperidin-4-yl)-1-(pyridin-2-yl)-1H-pyrazol-5-yl)-6-(1H-pyrazol-5-yl)picolinamide], the IC50 in experiment [1] came to 4 nM; in experiment [2], 8 nM.
The matching figures for `Cc1ccc(-n2nc(C3CCN(C(C)C)CC3)cc2NC(=O)c2cccc(-c3cn[nH]c3)n2)nc1` [Compound 002, N-(3-(1-isopropylpiperidin-4-yl)-1-(5-methylpyridin-2-yl)-1H-pyrazol-5-yl)-6-(1H-pyrazol-4-yl)picolinamide]: 3 nM and 36 nM.
The matching figures for `CC(C)N1CCC(c2cc(NC(=O)c3cccc(-c4cn[nH]c4)n3)n(-c3ccccn3)n2)CC1` [Compound 003, N-(3-(1-isopropylpiperidin-4-yl)-1-(pyridin-2-yl)-1H-pyrazol-5-yl)-6-(1H-pyrazol-4-yl)picolinamide]: 6 nM and 66 nM.
The like results for `Cc1ccc(-n2nc(C3CCN(C(C)C)CC3)cc2NC(=O)c2cccc(-c3cnsc3)n2)nc1` [Compound 004, N-(3-(1-isopropylpiperidin-4-yl)-1-(5-methylpyridin-2-yl)-1H-pyrazol-5-yl)-6-(isothiazol-4-yl)picolinamide] were, in that order, 24 nM and 372 nM.
Regarding `CC(C)N1CCC(c2cc(NC(=O)c3cccc(-c4cnsc4)n3)n(-c3ccccn3)n2)CC1` [Compound 005, N-(3-(1-isopropylpiperidin-4-yl)-1-(pyridin-2-yl)-1H-pyrazol-5-yl)-6-(isothiazol-4-yl)picolinamide], the figures for the IC50 in experiment [1] and in experiment [2] were 37 nM and 183 nM, respectively.
The matching figures for `Cc1ccc(-n2nc(C3CCN(C(C)C)CC3)cc2NC(=O)c2cccc(-c3cnoc3)n2)nc1` [Compound 006, N-(3-(1-isopropylpiperidin-4-yl)-1-(5-methylpyridin-2-yl)-1H-pyrazol-5-yl)-6-(isoxazol-4-yl)picolinamide]: 6 nM and 15 nM.
As for `CC(C)N1CCC(c2cc(NC(=O)c3cccc(-c4cnoc4)n3)n(-c3ccccn3)n2)CC1` [Compound 007, N-(3-(1-isopropylpiperidin-4-yl)-1-(pyridin-2-yl)-1H-pyrazol-5-yl)-6-(isoxazol-4-yl)picolinamide], the IC50 in experiment [1] was 31 nM; in experiment [2] it was 317 nM.
The matching figures for `Cc1ccc(-n2nc(C3CCN(C4COC4)CC3)cc2NC(=O)c2ccccn2)nc1` [Compound 008, N-(1-(5-methylpyridin-2-yl)-3-(1-(oxetan-3-yl)piperidin-4-yl)-1H-pyrazol-5-yl)picolinamide]: 148 nM and 1350 nM.
Turning to `Cc1ccc(-n2nc(C3CCN(C(C)C)CC3)cc2NC(=O)c2ccccn2)nc1` [Compound 009, N-(3-(1-isopropylpiperidin-4-yl)-1-(5-methylpyridin-2-yl)-1H-pyrazol-5-yl)picolinamide], the IC50 in experiment [1] turned out to be 55 nM; in experiment [2] it was 1650 nM.
The matching figures for `CC(C)N1CCC(c2cc(NC(=O)c3ccccn3)n(-c3ccccn3)n2)CC1` [Compound 010, N-(3-(1-isopropylpiperidin-4-yl)-1-(pyridin-2-yl)-1H-pyrazol-5-yl)picolinamide]: 43 nM and 1100 nM.
The like results for `Cc1ccc(-n2nc(C3CCN(C)CC3)cc2NC(=O)c2ccccn2)nc1` [Compound 011, N-(3-(1-methylpiperidin-4-yl)-1-(5-methylpyridin-2-yl)-1H-pyrazol-5-yl)picolinamide] were, in that order, 170 nM and 835 nM.
The like results for `Cc1ccc(-n2nc(C3CCN(C(C)C)CC3)cc2NC(=O)c2cccc(-c3ccn[nH]3)n2)nc1` [Compound 012, N-(3-(1-isopropylpiperidin-4-yl)-1-(5-methylpyridin-2-yl)-1H-pyrazol-5-yl)-6-(1H-pyrazol-5-yl)picolinamide] were, in that order, 3 nM and 7 nM.
For the compound `Cc1ccc(-n2nc(C3CCN(C(C)C)CC3)cc2NC(=O)c2cccc(-c3cnn(CC(=O)N(C)C)c3)n2)nc1` [Compound 013, 6-(1-(2-(dimethylamino)-2-oxoethyl)-1H-pyrazol-4-yl)-N-(3-(1-isopropylpiperidin-4-yl)-1-(5-methylpyridin-2-yl)-1H-pyrazol-5-yl)picolinamide], the IC50 turned out to be 45 nM in experiment [1] and 718 nM in experiment [2].
The matching figures for `CNC(=O)Cn1cc(-c2cccc(C(=O)Nc3cc(C4CCN(C(C)C)CC4)nn3-c3ccc(C)cn3)n2)cn1` [Compound 014, N-(3-(1-isopropylpiperidin-4-yl)-1-(5-methylpyridin-2-yl)-1H-pyrazol-5-yl)-6-(1-(2-(methylamino)-2-oxoethyl)-1H-pyrazol-4-yl)picolinamide]: 36 nM and 656 nM.
The like results for `CC(C)N1CCC(c2cc(NC(=O)c3cccc(-c4cnn(CC(N)=O)c4)n3)n(-c3ccccn3)n2)CC1` [Compound 016, 6-(1-(2-amino-2-oxoethyl)-1H-pyrazol-4-yl)-N-(3-(1-isopropylpiperidin-4-yl)-1-(pyridin-2-yl)-1H-pyrazol-5-yl)picolinamide] were, in that order, 39 nM and 828 nM.
The matching figures for `Cc1ccc(-n2nc(C3CCN(C(C)C)CC3)cc2NC(=O)c2cccc(C#N)n2)nc1` [Compound 017, 6-cyano-N-(3-(1-isopropylpiperidin-4-yl)-1-(5-methylpyridin-2-yl)-1H-pyrazol-5-yl)picolinamide]: 9 nM and 90 nM.
As for `CC(C)N1CCC(c2cc(NC(=O)c3cccc(/C=C/C(N)=O)n3)n(-c3ccccn3)n2)CC1` [Compound 018, (E)-6-(3-amino-3-oxoprop-1-en-1-yl)-N-(3-(1-isopropylpiperidin-4-yl)-1-(pyridin-2-yl)-1H-pyrazol-5-yl)picolinamide], the values for the IC50 in experiment [1] and in experiment [2] were 24 nM and 234 nM, respectively.
The matching figures for `CC(C)N1CCC(c2cc(NC(=O)c3cccc(CCC(N)=O)n3)n(-c3ccccn3)n2)CC1` [Compound 019, 6-(3-amino-3-oxopropyl)-N-(3-(1-isopropylpiperidin-4-yl)-1-(pyridin-2-yl)-1H-pyrazol-5-yl)picolinamide]: 47 nM and 242 nM.
The like results for `CC(C)N1CCC(c2cc(NC(=O)c3cccc(N4CCNCC4)n3)n(-c3ccccn3)n2)CC1` [Compound 020, N-(3-(1-isopropylpiperidin-4-yl)-1-(pyridin-2-yl)-1H-pyrazol-5-yl)-6-(piperazin-1-yl)picolinamide] were, in that order, 561 nM and 10000 nM.

Source of the values: US20240391899A1, “POTENT AND SELECTIVE INHIBITORS OF IRAK4” (Dana-Farber Cancer Institute, Inc., priority 2021, published 2024).
